According to ChEMBL document CHEMBL1201862, “PubChem BioAssay data set” (2004):
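Five compound concentrations were applied to cells in 96-well plates for 48 hours; endpoints were derived by simple linear interpolation of the resulting dose-response curve. At the GI50, growth is halved.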 The source made the active and inactive calls. No stated cut-off is given here; in the data, active = GI50 up to about 1.1 µM and inactive = higher.

What was measured:
Assay in all cases: NCI-60 cell line screen, 48 h
SF-268 = system: SF-268
HT-29 = system: HT-29
SK-MEL-2 = system: SK-MEL-2
SW-620 = system: SW-620
SK-OV-3 = system: SK-OV-3
EKVX = system: EKVX
HCC 2998 = system: HCC 2998
OVCAR-4 = system: OVCAR-4
NCI-H23 = system: NCI-H23
NCI-H226 = system: NCI-H226
A549 = system: A549
HOP-62 = system: HOP-62
OVCAR-8 = system: OVCAR-8
A498 = system: A498
LOX IMVI = system: LOX IMVI
NCI-H460 = system: NCI-H460

Measured: GI50

CCCCCCCCCCCCCCCCCC(=O)NCC(COP(=O)(O)O)OCC (configuration not stated)
inactive: SF-268 22.3 µM | HT-29 68.7 µM | SK-MEL-2 38.1 µM | SW-620 > 100 µM | SK-OV-3 34.9 µM | EKVX 46.3 µM | HCC 2998 > 100 µM | OVCAR-4 > 100 µM | NCI-H23 14.1 µM | NCI-H226 27.7 µM | A549 31.1 µM | HOP-62 22 µM | OVCAR-8 36.6 µM | A498 24.3 µM

Cc1ccc(C(=O)O/N=C2/CCC/C2=C\c2ccccc2)cc1
inactive: SF-268 29.1 µM | HT-29 > 100 µM | LOX IMVI > 100 µM | SK-MEL-2 > 100 µM | SW-620 > 100 µM | SK-OV-3 > 100 µM | EKVX > 100 µM | HCC 2998 > 100 µM | OVCAR-4 > 100 µM | NCI-H23 > 100 µM | NCI-H226 > 100 µM | A549 > 100 µM | HOP-62 > 100 µM | OVCAR-8 > 100 µM | A498 > 100 µM | NCI-H460 > 100 µM

Cn1c(CBr)nc2c1C(=O)c1nc(CBr)[nH]c(=O)c1C2=O
inactive: SF-268 > 100 µM | HT-29 > 100 µM | LOX IMVI 50.1 µM | SW-620 > 100 µM | SK-OV-3 > 100 µM | EKVX > 100 µM | NCI-H23 > 100 µM | A549 > 100 µM | OVCAR-8 > 100 µM | A498 > 100 µM | NCI-H460 > 100 µM

CC(c1ccc(Br)cc1)C(C(=O)O)C(=O)O (configuration not stated)
inactive: SF-268 > 100 µM | HT-29 > 100 µM | LOX IMVI > 100 µM | SK-MEL-2 > 100 µM | SW-620 > 100 µM | SK-OV-3 > 100 µM | EKVX > 100 µM | HCC 2998 > 100 µM | OVCAR-4 > 100 µM | NCI-H23 > 100 µM | NCI-H226 > 100 µM | A549 > 100 µM | HOP-62 > 100 µM | OVCAR-8 > 100 µM | NCI-H460 > 100 µM

CN1/C(=C/C(=O)c2ccc(Cl)cc2)Nc2ccccc21
inactive: SF-268 43.9 µM | HT-29 50.7 µM | LOX IMVI 39.3 µM | SK-MEL-2 > 100 µM | SW-620 55.5 µM | EKVX 23.1 µM | HCC 2998 56 µM | OVCAR-4 77.6 µM | NCI-H23 43.7 µM | NCI-H226 13.6 µM | A549 25.9 µM | OVCAR-8 83.9 µM | NCI-H460 32.5 µM

CCCCCCCC(=O)OC(CBr)COC(=O)C(C)(C)C (configuration not stated)
inactive: SF-268 > 100 µM | HT-29 > 88.5 µM | LOX IMVI > 63.2 µM | SK-MEL-2 > 100 µM | SW-620 > 100 µM | SK-OV-3 > 100 µM | EKVX > 100 µM | HCC 2998 > 100 µM | OVCAR-4 > 95.1 µM | NCI-H23 > 100 µM | NCI-H226 > 100 µM | A549 > 100 µM | HOP-62 > 100 µM | OVCAR-8 > 100 µM | A498 > 100 µM | NCI-H460 > 100 µM

OCC[N+]12CCCN1CCC2
inactive: SF-268 > 100 µM | HT-29 > 100 µM | LOX IMVI > 100 µM | SK-MEL-2 > 100 µM | SW-620 > 100 µM | SK-OV-3 > 100 µM | EKVX > 100 µM | HCC 2998 > 100 µM | OVCAR-4 > 100 µM | NCI-H23 > 100 µM | NCI-H226 > 100 µM | A549 > 100 µM | HOP-62 > 100 µM | OVCAR-8 > 100 µM | A498 > 100 µM | NCI-H460 > 100 µM

N#C/C(=C1\SC(/N=N/c2ccc(Cl)cc2)C(=O)N1c1ccccc1)c1nc2ccccc2[nH]1 (configuration not stated)
inactive: SF-268 > 100 µM | HT-29 63.8 µM | LOX IMVI 15 µM | SK-MEL-2 18.2 µM | SW-620 98.6 µM | SK-OV-3 15.5 µM | EKVX 47.3 µM | OVCAR-4 23 µM | NCI-H23 17.3 µM | NCI-H226 23.4 µM | A549 29.7 µM | HOP-62 19.8 µM | OVCAR-8 54.2 µM | A498 29.7 µM | NCI-H460 33.7 µM

O=S(=O)(O)c1ccc(/N=N/c2nc(C(F)(F)F)c(C(F)(F)F)[nH]2)cc1
inactive: SF-268 56.5 µM | HT-29 77.1 µM | LOX IMVI 15.8 µM | SK-MEL-2 30.3 µM | SW-620 41.5 µM | SK-OV-3 > 100 µM | EKVX 43.5 µM | OVCAR-4 21.6 µM | NCI-H23 24.2 µM | NCI-H226 31.5 µM | A549 61.8 µM | HOP-62 36.6 µM | OVCAR-8 29.4 µM | NCI-H460 82 µM

COc1ccc(N2C(=O)C3c4[nH]c5ccccc5c4C4CCCCCCCCCCC4C3C2=O)cc1 (configuration not stated)
inactive: SF-268 5.16 µM | HT-29 4.42 µM | LOX IMVI 11.1 µM | SK-MEL-2 > 100 µM | SW-620 4.58 µM | SK-OV-3 28.8 µM | EKVX 23.4 µM | HCC 2998 > 100 µM | OVCAR-4 26.2 µM | NCI-H23 9.38 µM | NCI-H226 6.93 µM | A549 4.84 µM | HOP-62 20.3 µM | OVCAR-8 3.39 µM | A498 9.4 µM | NCI-H460 4.92 µM

CCOC(=O)c1[nH]c(COC(C)=O)c2c1CCCCCCCCCC2
inactive: SF-268 > 100 µM | HT-29 > 100 µM | LOX IMVI > 100 µM | SK-MEL-2 > 100 µM | SW-620 > 100 µM | SK-OV-3 > 100 µM | EKVX > 100 µM | HCC 2998 > 100 µM | OVCAR-4 > 100 µM | NCI-H23 > 100 µM | NCI-H226 > 100 µM | A549 > 100 µM | HOP-62 > 100 µM | OVCAR-8 > 100 µM | A498 > 100 µM | NCI-H460 > 100 µM

COc1cc2c(cc1C1=NC(C)(C)CO1)OCO2
inactive: SF-268 > 100 µM | HT-29 > 100 µM | SK-MEL-2 > 100 µM | SW-620 > 100 µM | SK-OV-3 > 100 µM | EKVX > 100 µM | OVCAR-4 > 100 µM | NCI-H23 > 100 µM | NCI-H226 > 100 µM | A549 > 100 µM | HOP-62 > 100 µM | OVCAR-8 > 100 µM | NCI-H460 > 100 µM

CN(C)c1ccc(/C=c2\sc3nnc(-c4cccnc4)n3c2=O)cc1
inactive: SF-268 > 100 µM | LOX IMVI > 100 µM | SK-MEL-2 > 100 µM | SW-620 > 100 µM | SK-OV-3 > 100 µM | EKVX > 100 µM | HCC 2998 > 100 µM | OVCAR-4 > 100 µM | NCI-H23 > 100 µM | NCI-H226 > 100 µM | A549 > 100 µM | HOP-62 > 100 µM | OVCAR-8 > 100 µM | A498 > 100 µM | NCI-H460 > 100 µM

CC(C)C(Sc1nc(-c2ccccc2)c(-c2ccccc2)[nH]1)c1n[nH]c(=S)n1-c1ccccc1 (configuration not stated)
inactive: SF-268 29.4 µM | HT-29 23.8 µM | LOX IMVI 17.5 µM | SK-MEL-2 20.4 µM | SW-620 23.4 µM | SK-OV-3 40.3 µM | EKVX 26.2 µM | HCC 2998 28.4 µM | OVCAR-4 35.5 µM | NCI-H23 21.9 µM | NCI-H226 37.7 µM | A549 33.7 µM | HOP-62 44.6 µM | OVCAR-8 34.5 µM | A498 43.3 µM | NCI-H460 32.3 µM

CSc1nc(NC2OCC(OC(C)=O)C(OC(C)=O)C2OC(C)=O)c(/N=C\C=N\c2c(NC3OCC(OC(C)=O)C(OC(C)=O)C3OC(C)=O)nc(SC)n(C)c2=O)c(=O)n1C (configuration not stated)
inactive: SF-268 > 100 µM | HT-29 > 100 µM | LOX IMVI > 100 µM | SK-MEL-2 > 100 µM | SW-620 > 100 µM | SK-OV-3 > 100 µM | EKVX > 100 µM | HCC 2998 > 100 µM | OVCAR-4 > 100 µM | NCI-H23 > 100 µM | A549 > 100 µM | HOP-62 > 100 µM | OVCAR-8 > 100 µM | A498 > 100 µM | NCI-H460 > 100 µM

C=CC[P@@]1(=O)O[C@H](c2ccccc2)C(C)N1C(C)C (some centres not stated)
inactive: SF-268 > 100 µM | HT-29 > 100 µM | LOX IMVI > 100 µM | SW-620 > 100 µM | SK-OV-3 > 100 µM | EKVX > 100 µM | HCC 2998 > 100 µM | OVCAR-4 > 100 µM | NCI-H23 > 100 µM | NCI-H226 > 100 µM | A549 > 100 µM | OVCAR-8 > 100 µM | A498 > 100 µM | NCI-H460 > 100 µM

COc1cc(/C=C/c2ccc(OC(C)=O)cc2)cc(OC)c1OC
inactive: SF-268 32 µM | HT-29 34.9 µM | LOX IMVI 29.2 µM | SW-620 43.5 µM | EKVX 26.3 µM | OVCAR-4 22.8 µM | NCI-H226 35.8 µM | A549 26.1 µM | HOP-62 45.7 µM | OVCAR-8 31.2 µM | A498 23.6 µM | NCI-H460 26.1 µM

COc1cc(/C=C\c2ccccc2)cc(OC)c1OC
inactive: SF-268 6.55 µM | HT-29 2.75 µM | LOX IMVI 4.6 µM | SK-MEL-2 4.07 µM | SW-620 2.84 µM | EKVX 6.01 µM | HCC 2998 11.8 µM | OVCAR-4 6.46 µM | NCI-H23 4.13 µM | NCI-H226 4.2 µM | A549 5.28 µM | HOP-62 2.9 µM | OVCAR-8 3.69 µM | A498 5.24 µM | NCI-H460 2.55 µM
